This passage reports viability results from paper PMC12040169 (PLOS Biology, 2025).

Molecules are shown by their SMILES.

The nature of one data set: in vitro. To be noted: human, hela cells, % viability.
The term viability denotes a read-out of living cells in per cent, often relative to untreated cells. With `O=C(OCCN1CCOCC1)c1ccccc1I` [CBK033860], the viability at 28.5 h, 10 µM was 95.4%.
On to `O=C(NCc1nnc(-c2cccs2)o1)C1(c2ccccc2F)CC1` [CBK284637], for which the viability at 28.5 h, 10 µM stood at 83.2%.
As to `Cc1nn(-c2ccccc2)c(Cl)c1CN1C(=O)NC2(CCCCC2)C1=O` [CBK306043], the viability at 28.5 h, 10 µM worked out at 83.8%.
As for `O=C(Cc1cccnc1)N1CCC(O)(c2cccc(F)c2)CC1` [CBK283537], the viability at 28.5 h, 10 µM is 95.9%.
Still for that read-out and setting: next, `OCc1ccc(-n2ncc(-c3ccc(Br)cc3F)n2)cc1` [CBK112920]: 96.6%; `COc1cc2c(cc1OC)CN(Cc1ccc(OCc3ccccc3)c(OC)c1)CC2` [CBK033974]: 93%.
With `CS(=O)(=O)NC1CCN(c2nc(C(=O)O)nc3ccccc23)CC1` [CBK304316N], the viability at 28.5 h, 10 µM was 105%.
As for `c1cncc(CCOc2nccnc2N2CCNCC2)c1` [CBK014992], the viability at 28.5 h, 10 µM is 101%.
For `CCCC(C(=O)NCCN(C)C1CCCCC1)n1nc(C)cc1C` (stereo not shown) [CBK282039], the viability at 28.5 h, 10 µM is 96.4%.
Turning to `CC(C)N(CC(N)=O)Cc1nc(-c2cccc(C(F)(F)F)c2)no1` [CBK306287], the viability at 28.5 h, 10 µM was determined as 89.8%.
The same measure, in the same setting: next, `CCOC(=O)c1ccc(NCc2c(O)ccc3oc4c(c23)CCCC4)cc1` [CBK160394]: 97.7%.
With `COc1ccc(CCC(=O)N2CCCC2c2cc(Nc3nccs3)cc(C)n2)cc1` (stereo not shown) [CBK285939], the viability at 28.5 h, 10 µM came to 90%.
Still for that read-out and setting: next, `COc1ccc(Nc2cn(C)nc2C(=O)O)cc1` [CBK269814]: 103%.
With `O=C(CCn1c(-c2ccncc2)cc2cccnc21)NC1CCCCC1` [CBK282621], the viability at 28.5 h, 10 µM amounted to 87.8%.
Regarding `COc1ccccc1Oc1ccc(NS(=O)(=O)c2cccc(C(=O)O)c2)cc1` [CBK296728], the viability at 28.5 h, 10 µM worked out at 108%.
Turning to `O=C(Nc1ccc(Br)cc1C(=O)O)c1cccs1` [CBK066822], the viability at 28.5 h, 10 µM stood at 86.8%.
On the same count and under the same terms, in the case of `Nc1nc2c(ncn2[C@H]2C[C@@H](O)[C@@H](CO)O2)c(=S)[nH]1` [CBK201213] it was 59.3%; in that of `CCn1c(C)cc2cc(NS(=O)(=O)c3ccc4[nH]c(=O)[nH]c(=O)c4c3)ccc21` [CBK286363], 104%.
Still for that read-out and setting: next, `Cc1nc(=O)c(-c2ccccc2)c(C)n1-c1ccc2cn[nH]c2c1` [CBK288193]: 100%; `CN(C)CCC1OC(=O)N(c2ccccc2)C1=O` (stereo not shown) [CBK010134C]: 107%.
Turning to `CCc1cccc(CC)c1NC(=O)CC1SC(NCc2ccc(C)cc2)=NC1=O` (stereo not shown) [CBK059431], the viability at 28.5 h, 10 µM amounted to 118%.
Take `COC(=O)COc1nccnc1-c1ccc(SC)cc1` [CBK106806]: the viability at 28.5 h, 10 µM is 107%.
Consider `CCn1c(SCC(=O)N/N=C/C(C)=C/c2ccccc2)nc2ccccc21` [CBK263178], for which the viability at 28.5 h, 10 µM was 107%.
As for `NC(=O)CCCN1CC[C@H]2c3c(cccc3C(N)=O)CC[C@H]21` [CBK007883], the viability at 28.5 h, 10 µM is 93.3%.
Take `CCOc1ccccc1NC(=O)CSc1c[nH]nn1` [CBK270005]: the viability at 28.5 h, 10 µM amounted to 83.3%.
For the molecule `COc1ccc2c(c1)CCC1(C)C2=C(C(=O)O)CC1O` (stereo not shown) [CBK022814], the viability at 28.5 h, 10 µM was 103%.
As to `Cc1c(C(=O)N2CCOCC2)sc2nc(-c3ccc(Cl)cc3)nn12` [CBK010863], the viability at 28.5 h, 10 µM was 91.4%.
As to `Cc1ccccc1CC(=O)N1CCCC1c1n[nH]cc1-c1ccncc1` (stereo not shown) [CBK283431], the viability at 28.5 h, 10 µM is 87.7%.
For the molecule `C=CCn1c(Cc2csc(NC(=O)c3ccc(C(C)=O)s3)n2)n[nH]c1=S` [CBK295299], the viability at 28.5 h, 10 µM stood at 77%.
As for `CC(=O)c1sc(NC(=O)c2ccccc2Oc2ccccc2)nc1C` [CBK287314], the viability at 28.5 h, 10 µM came out at 90.9%.
Take `CCOc1ccc(CN(C)C(=O)Cn2nc(C(=O)O)c3ccccc3c2=O)cc1` [CBK297492]: the viability at 28.5 h, 10 µM came out at 83.8%.
For the molecule `CSc1ccc(-c2cnc3ncccc3c2N)cc1` [CBK083680], the viability at 28.5 h, 10 µM is 101%.
In the case of `O=S(=O)(c1ccc(Br)s1)N1CCC(Cc2ccccc2)CC1` [CBK043580], the viability at 28.5 h, 10 µM worked out at 89.7%.
For `Cc1cc(=O)oc2cc(NC(=S)N3CCN(C/C=C/c4ccccc4)CC3)ccc12` [CBK267045], the viability at 28.5 h, 10 µM was found to be 92%.
With `CC(C)(O)CCN(Cc1ccc(-c2ccc(S(C)(=O)=O)cc2)nc1)C1CCN(C(=O)OC(C)(C)C)CC1` [CBK167517], the viability at 28.5 h, 10 µM came to 101%.
As for `COc1ccc(C(=O)Nc2cncc(OC3CCNCC3)n2)cc1` [CBK036370T], the viability at 28.5 h, 10 µM stood at 94.4%.
Turning to `COc1ccc([C@@]23CC[C@@H](NC(=O)Nc4cccc(C#N)c4)C[C@@H]2N(C)CC3)cc1OC` [CBK036448T], the viability at 28.5 h, 10 µM was found to be 103%.
For the molecule `O=c1oc2ccccc2c(NCCCN2CCOCC2)c1[N+](=O)[O-]` [CBK261471], the viability at 28.5 h, 10 µM worked out at 120%.
For `O=C(OCCc1ccncc1)N1Cc2ccccc2C1` [CBK200141], the viability at 28.5 h, 10 µM was found to be 95.5%.
Consider `COCCNc1cc(-c2ccc(F)c(F)c2)ncn1` [CBK090800], for which the viability at 28.5 h, 10 µM came to 100%.
In the case of `NS(=O)(=O)c1ccc(Nc2nc3nonc3nc2Nc2ccc(S(N)(=O)=O)cc2)cc1` [CBK261110], the viability at 28.5 h, 10 µM was found to be 97.5%.
Turning to `O=C(Nc1cccc(F)c1)N1CCC(Cc2cccnc2)CC1` [CBK306369], the viability at 28.5 h, 10 µM was 87.3%.
For the molecule `COc1ccc(C)cc1S(=O)(=O)N1CCc2c(CN3CCN(C)CC3)cccc21` [CBK113628T], the viability at 28.5 h, 10 µM worked out at 115%.
On to `CS(=O)(=O)N1CCC(C(=O)NC(c2ccc(F)cc2)c2ccccn2)CC1` (stereo not shown) [CBK059696], for which the viability at 28.5 h, 10 µM was 94.9%.
Regarding `CCCC(=O)c1ccc(S(=O)(=O)N2CCN(Cc3csc(-c4ccccc4)n3)CC2)cc1` [CBK063161], the viability at 28.5 h, 10 µM turned out to be 93.3%.
Turning to `Oc1ccc(CN2CCN(c3ncccn3)CC2)cc1` [CBK261567], the viability at 28.5 h, 10 µM is 105%.
As for `Cc1n[nH]nc1C(=O)N(C)CC(C)Oc1ccc(Cl)c(Cl)c1` (stereo not shown) [CBK306173], the viability at 28.5 h, 10 µM is 85.2%.
Regarding `CCCCn1c(SCc2nc(-c3cccc(Cl)c3)no2)n[nH]c1=O` [CBK295356], the viability at 28.5 h, 10 µM was determined as 116%.
Still for that read-out and setting: next, `CCCCOc1ccc(NC(=O)NCCc2cccs2)cc1` [CBK045202]: 105%; `CC1CCc2noc(C3CCCN(C(=O)c4ccco4)C3)c2C1` (stereo not shown) [CBK282865]: 110%.
In the case of `O=C(O)Cc1ccc(Oc2ncc(C(F)(F)F)cc2Cl)cc1` [CBK161657], the viability at 28.5 h, 10 µM was 104%.
The same measure, in the same setting: next, `COc1ccc(OC(=O)C2CCN(C(=O)CC(C)C)CC2)c([N+](=O)[O-])c1` [CBK154770]: 97.4%; `CCN(CC)C(=O)Cn1c(=O)n(CC)c2ncccc21` [CBK282347]: 107%; `O=S(=O)(Nc1ccc(C(O)(C(F)(F)F)C(F)(F)F)cc1)c1csc2ccccc12` [CBK062098]: 85.4%.
On to `COc1ccccc1C(=O)NCCNC(=O)c1ccccn1` [CBK269174], for which the viability at 28.5 h, 10 µM amounted to 104%.
On the same count and under the same terms, in the case of `C1=NC2C(COCc3ccccc3)CCC2N1c1ccccc1` (stereo not shown) [CBK010679] it was 107%; in that of `Cc1ccc(COc2ccc(/C=N/NC(=O)CN3CCCCC3)cc2)cc1` [CBK262227], 103%.
Still for that read-out and setting: next, `CC(C)(C)OC(=O)NNC(=S)Nc1ccc(S(N)(=O)=O)cc1` [CBK267107]: 100%.
`COc1cccc(-c2nc(CC(=O)N3CCC(C(=O)O)CC3)cs2)c1` [CBK286797]: the viability at 28.5 h, 10 µM stood at 92.3%.
Same read-out and setting: next, `O=C(O)c1ccc2c(c1)c(C(C(=O)O)N1CCCC1)cn2Cc1ccccc1` (stereo not shown) [CBK286633]: 90.1%.
On the same count and under the same terms, next, `CN1C(=O)CC2(C1=O)C(=O)N(CC(=O)c1ccccc1)c1ccc(F)cc12` (stereo not shown) [CBK075420]: 95.4%; `Nc1ncnc2nc(-c3ccncc3)nn12` [CBK288550]: 102%; `O=C(O)C1CCN(C2C(=O)Nc3ccc(Cl)cc3C2c2ccccc2)CC1` (stereo not shown) [CBK287210]: 94.4%.
Same read-out and setting: in the case of `O=C(Cn1ccccc1=O)Nc1ccc(OCC(F)(F)F)nc1` [CBK304556] it was 88.9%; in that of `Nc1nn2c(c1Cc1c(Cl)cccc1Cl)OCC2` [CBK088759], 91.7%.
Regarding `CCC(=O)Nc1nc(-c2ccc(C(=O)OC)cc2)nc2c1c(=O)oc1ccccc12` [CBK268449], the viability at 28.5 h, 10 µM was 110%.
On to `Cc1ccc(C)c(C(=O)C2=C(O)C(=O)N(CCN(C)C)C2c2ccc(O)cc2)c1` (stereo not shown) [CBK265740], for which the viability at 28.5 h, 10 µM was 102%.
Regarding `O=C(CC1C(=O)N(c2cccc(Cl)c2)C(=O)N1CCc1cccs1)Nc1ccccc1` (stereo not shown) [CBK267499], the viability at 28.5 h, 10 µM worked out at 79.7%.
Consider `CCCC(NC(=O)C1C=CCN1S(C)(=O)=O)c1cccs1` (stereo not shown) [CBK282668], for which the viability at 28.5 h, 10 µM was 92.9%.
Still for that read-out and setting: next, `O=C(O)c1ccc(N2C(=O)c3ccc(Oc4ccc(S(=O)(=O)c5ccc(C(=O)O)cc5)cc4)cc3C2=O)cc1` [CBK263603]: 96.8%; `O=C1Nc2ccc(Br)cc2/C1=C1/SC(=S)N(C(Cc2ccccc2)C(=O)O)C1=O` (stereo not shown) [CBK263521]: 95.6%; `O=C(Nc1ccc(Oc2ncccn2)cc1)c1csc(-c2ccccc2)n1` [CBK298324]: 85.5%.
The same measure, in the same setting: in the case of `O=c1cc(-c2ccccc2)nc(N2CCOCC2)[nH]1` [CBK003840] it was 93.9%; in that of `Cn1c(Cc2nn(C)c(=O)c3ccccc23)nnc1SCC(=O)C(C)(C)C` [CBK010985], 105%.
On to `O=C1CC(NCc2ccc3c(c2)OCO3)C(=O)N1c1ccc(OC(F)(F)Cl)cc1` (stereo not shown) [CBK074357], for which the viability at 28.5 h, 10 µM stood at 87.7%.
Still for that read-out and setting: next, `O=C(Cn1cnc2c(cnn2-c2ccc(F)cc2)c1=O)NCc1ccccc1` [CBK287538]: 93.1%; `COc1ccccc1N1CCN(C(=O)Nc2cccnc2)CC1` [CBK155617]: 98.7%.
As for `CC1CN(C(=O)OC(C)(C)C)CCN1` (stereo not shown) [CBK000069C], the viability at 28.5 h, 10 µM worked out at 100%.

The same data set, now with this note: human, hela cells, % viability, bulk resorufin, single well.
Take `CCOC(=O)N1CCC2(CC1)OCc1ccc(C#N)cc1O2` [CBK131679]: the viability at 28.5 h, 10 µM was 97.2%.
